Activity calls are given as the source filed them. Rule as the data show it, for most assays here: actives have a measured EC50 and inactives only a lower limit.
What was measured:
[1] = Luminescence Cell-Based Dose Response HTS to Identify Activators of Luciferase Translation or Activity in H4 […] Cells. [Related pubchem assays: 1829 (Project Summary), 1814 (Primary HTS)]; format: functional
[2] = Luminescence Cell-Based Dose Confirmation HTS to Identify Activators of 5'UTR Stem-Loop Driven Alpha-Synuclein mRNA Translation in H4 Neuroglioblastoma Cells. [Related pubchem assays: 1829 (Project Summary), 1814 (Primary HTS)]; format: functional
[3] = target: T1, Corticotropin-releasing factor receptor 2/Corticotropin-releasing factor-binding protein (Homo sapiens, UniProt P24387+Q13324); test: activators of CRF receptor 2 with binding protein – uHTS hits, confirmation (AID 602473); format: functional; settings: read-out: EC50_Mean
T1 sequence (Q13324 whole entry): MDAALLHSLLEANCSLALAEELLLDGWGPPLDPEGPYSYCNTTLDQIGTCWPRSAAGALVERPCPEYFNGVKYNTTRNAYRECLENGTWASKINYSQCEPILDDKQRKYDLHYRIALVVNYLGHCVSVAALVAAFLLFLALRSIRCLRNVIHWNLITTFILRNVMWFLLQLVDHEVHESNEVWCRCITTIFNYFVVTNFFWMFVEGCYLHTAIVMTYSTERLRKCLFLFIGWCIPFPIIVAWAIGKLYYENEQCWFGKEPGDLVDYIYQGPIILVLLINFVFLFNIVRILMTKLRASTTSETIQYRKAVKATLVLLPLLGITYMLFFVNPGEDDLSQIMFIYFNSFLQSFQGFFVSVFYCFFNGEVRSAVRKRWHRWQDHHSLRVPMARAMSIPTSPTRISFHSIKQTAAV
T1 sequence (P24387 whole entry): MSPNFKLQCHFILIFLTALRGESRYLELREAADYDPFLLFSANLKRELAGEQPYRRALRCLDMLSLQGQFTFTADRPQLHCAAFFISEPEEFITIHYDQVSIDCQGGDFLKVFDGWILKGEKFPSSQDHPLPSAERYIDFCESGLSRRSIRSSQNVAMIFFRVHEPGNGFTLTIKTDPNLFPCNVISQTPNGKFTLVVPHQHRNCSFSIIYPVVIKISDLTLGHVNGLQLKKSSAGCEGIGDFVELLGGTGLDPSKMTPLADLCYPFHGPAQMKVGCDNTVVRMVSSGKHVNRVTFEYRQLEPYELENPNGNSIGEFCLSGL

[4] = target: T1, Corticotropin-releasing factor receptor 2/Corticotropin-releasing factor-binding protein; test: Dose Response confirmation of uHTS hits for small molecule antagonists of the CRF-binding protein and CRF-R2 receptor complex.; format: functional; settings: read-out: IC50_Mean
H4 = test: Luminescence Cell-Based Dose Response HTS to Identify Activators of 5'UTR Stem-Loop Driven Prion Protein mRNA Translation in H4 Neuroglioblastoma Cells. [Related pubchem assays: 1829 (Project Summary), 1814 (Primary HTS)]; format: functional; settings: Homo sapiens
[5] = loss of viability in HepG2 cells – cell-based, CellTiter-Glo, cherry-picked, cytotoxicity control for Shn3 inhibitor project, dose response (AID 624134); format: functional
[6] = reduction of Shn3 3'UTR-driven luciferase in osteoblasts – cell-based, Clone20 osteoblasts, firefly luciferase, cherry-picked, dose response (AID 624132); format: functional;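 also: firefly luciferase luminescence from reporter carrying the Shn3 3'UTR in osteoblasts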
[7] = non-specific 3'UTR reporter inhibition in Clone20-Shn3RL – cell-based, Renilla luciferase, cherry-picked, counter-screen for Shn3 inhibitor project, dose response (AID 624133); format: functional
[8] = NIH3T3 cell viability loss – ATP luminescence, mouse fibroblasts, counter-screen, dose response (AID 2010); format: functional, cell-based;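 also: cells exposed to compound for about 90 hours before reading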
[9] = Luminescence Cell-Based Dose Response HTS to Identify Inhibitors of 5'UTR Stem-Loop Driven Prion Protein mRNA Translation in H4 Neuroglioblastoma Cells. [Related pubchem assays: 1827 (Project Summary), 1813 (Primary HTS)]; format: functional
[10] = Trypanosoma cruzi growth suppression in host cells – NIH3T3 host cells, beta-gal luminescence, confirmation (AID 2044); format: functional, cell-based;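 also: intracellular parasites grown in NIH/3T3 mouse fibroblasts as host cells; luminescent beta-galactosidase reporter signal from transgenic T. cruzi replicating inside host cells; inhibitors lower the luminescence signal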
[11] = luciferase reporter signal suppression in cells – H4 neuroglioma cells, luminescence, dose response (AID 1990); format: functional, cell-based
[12] = alpha-synuclein stem-loop luciferase translation blockers – H4 neuroglioma cells, luminescence, confirmation (AID 1988); format: functional, cell-based
[13] = target: T2, Replicative DNA helicase DnaB (Mycobacterium tuberculosis, UniProt P9WMR3); test: DnaB intein splicing inhibitors, dose response, biochemical, cell-free fluorescence (AID 449749); format: functional
T2 sequence (P9WMR3 whole entry): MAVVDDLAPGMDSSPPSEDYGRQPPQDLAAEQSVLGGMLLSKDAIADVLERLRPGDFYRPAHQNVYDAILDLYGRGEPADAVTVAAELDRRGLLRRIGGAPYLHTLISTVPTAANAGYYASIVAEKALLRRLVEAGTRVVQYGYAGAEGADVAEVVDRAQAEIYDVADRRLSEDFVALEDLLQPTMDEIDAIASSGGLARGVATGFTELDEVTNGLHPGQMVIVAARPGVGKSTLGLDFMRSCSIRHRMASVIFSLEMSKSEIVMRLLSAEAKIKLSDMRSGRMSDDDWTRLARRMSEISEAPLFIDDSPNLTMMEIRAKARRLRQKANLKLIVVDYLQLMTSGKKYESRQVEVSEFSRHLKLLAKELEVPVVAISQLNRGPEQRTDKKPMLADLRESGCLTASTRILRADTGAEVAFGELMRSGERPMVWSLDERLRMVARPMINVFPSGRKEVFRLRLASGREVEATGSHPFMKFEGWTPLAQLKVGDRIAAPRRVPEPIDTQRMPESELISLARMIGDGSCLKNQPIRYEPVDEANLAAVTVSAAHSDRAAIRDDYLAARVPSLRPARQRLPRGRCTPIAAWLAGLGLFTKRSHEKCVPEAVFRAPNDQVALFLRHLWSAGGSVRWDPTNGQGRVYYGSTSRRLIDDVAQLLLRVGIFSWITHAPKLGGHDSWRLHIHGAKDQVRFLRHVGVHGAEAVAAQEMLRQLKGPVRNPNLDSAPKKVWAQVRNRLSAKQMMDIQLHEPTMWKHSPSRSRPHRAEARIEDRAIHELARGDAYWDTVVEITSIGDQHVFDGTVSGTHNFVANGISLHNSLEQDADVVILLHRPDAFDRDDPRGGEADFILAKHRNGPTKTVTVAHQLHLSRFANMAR

Protein RecA = target: T3, Protein RecA (Mycobacterium tuberculosis, UniProt P9WHJ3); test: Fluorescence Cell-Free Homogeneous Dose Retest to Identify Inhibitors of RecA-Intein Splicing Activity. [Related pubchem assays (depositor defined):AID2097, AID2223, AID489010, AID492950]; format: functional
T3 sequence (P9WHJ3 whole entry): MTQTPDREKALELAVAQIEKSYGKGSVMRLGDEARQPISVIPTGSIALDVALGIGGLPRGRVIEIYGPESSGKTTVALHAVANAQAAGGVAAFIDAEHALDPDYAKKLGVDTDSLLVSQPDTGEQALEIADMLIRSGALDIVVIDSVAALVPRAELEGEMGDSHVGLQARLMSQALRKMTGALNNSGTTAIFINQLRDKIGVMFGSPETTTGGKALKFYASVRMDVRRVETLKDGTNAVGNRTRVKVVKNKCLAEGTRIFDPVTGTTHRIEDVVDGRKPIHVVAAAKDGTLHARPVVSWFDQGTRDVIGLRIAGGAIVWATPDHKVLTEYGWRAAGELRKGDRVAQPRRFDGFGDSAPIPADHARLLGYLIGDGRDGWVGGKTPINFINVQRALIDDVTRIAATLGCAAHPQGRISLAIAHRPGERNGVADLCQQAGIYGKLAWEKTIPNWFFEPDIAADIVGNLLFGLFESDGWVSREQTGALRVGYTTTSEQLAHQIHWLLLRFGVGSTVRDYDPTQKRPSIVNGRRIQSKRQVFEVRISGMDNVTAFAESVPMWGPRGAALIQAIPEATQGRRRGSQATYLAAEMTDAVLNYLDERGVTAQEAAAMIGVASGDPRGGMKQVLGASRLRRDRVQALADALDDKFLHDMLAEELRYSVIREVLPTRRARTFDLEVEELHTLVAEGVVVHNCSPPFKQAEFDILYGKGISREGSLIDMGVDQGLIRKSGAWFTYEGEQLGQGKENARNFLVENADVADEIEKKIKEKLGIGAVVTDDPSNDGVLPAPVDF

Row | Compound | EC50 [1] | EC50 [2] | EC50 (H4) | also measured
1 | Cc1c(C(=O)NC(=S)NCC(C)C)oc2ccccc12 | 63.2 µM (active) | 27.2 µM (active) |  | 
2 | COCCn1c(SCC(=O)c2ccc3c(c2)OCCO3)nnc1-c1ccco1 |  |  |  | EC50 [3]: > 53 µM (inactive); IC50 [4]: > 47.1 µM (inactive)
3 | CC1CCCCN1C(=O)CSc1nc2ccsc2c(=O)n1Cc1ccccn1 (stereo unspecified) | 5.86 µM (active) | 46.3 µM (active) | 9.84 µM (active) | 
4 | CCc1c(C)nc2ncnn2c1Nc1ccc(C(C)=O)cc1 | 92 µM (active) | 34.4 µM (active) | 57.4 µM (active) | 
5 | COc1ccc(OC)c(C(=O)Cn2nnc(-c3ccc(N4CCOCC4)cc3)n2)c1 | > 120 µM (not active) | > 120 µM (not active) | > 120 µM (not active) | 
6 | C[C@H]1CN=C(N(C)C)N1CC1CCC(C(C)(C)C)CC1 (stereo partly specified) |  |  |  | AC50 [5]: 41.5 µM (active); AC50 [6]: 2.27 µM (active); AC50 [7]: 20.3 µM (active)
7 | CC(C)c1ccc(NCCC(=O)c2cccs2)cc1 | 33.1 µM (active) | 4.14 µM (active) | 61.8 µM (active) | 
8 | Brc1ccc2c(c1)OCCOCCOc1cc(Br)ccc1OCCOCCOCCO2 |  |  |  | EC50 [8]: > 60 µM (not active); EC50 [9]: 103 µM (active); EC50 [10]: 1.04 µM (active); EC50 [11]: 14.1 µM (active); EC50 [12]: > 120 µM (not active)
9 | COc1ccc(NC(=O)CSc2nnc(N)s2)c([N+](=O)[O-])c1 |  |  |  | EC50 [3]: > 53 µM (inactive); IC50 [4]: > 47.1 µM (inactive)
10 | O=C1CCCC/C1=C/Nc1ccc2c(c1)OCO2 | 7.34 µM (active) | 8.5 µM (active) | > 120 µM (not active) | 
11 | Cc1ccc(C(=O)NC(=S)NCC2CCCO2)cc1Br (stereo unspecified) | 21 µM (active) | 11 µM (active) | 45.5 µM (active) | 
12 | Cc1ccc(NC(=O)c2cc(NC(=O)/C=C\C(=O)O)ccc2N2CCCCC2)cc1 |  |  |  | EC50 [3]: > 53 µM (inactive); AC50 [13]: 14.4 µM (active); EC50 (Protein RecA): 9.32 µM (active); IC50 [4]: > 47.1 µM (inactive)
13 | CCOC(=O)N1CCN(C(=O)CCNS(=O)(=O)c2ccc3c(c2)c(=O)n(C)c(=O)n3C)CC1 | > 120 µM (not active) | > 120 µM (not active) | > 120 µM (not active) | 
14 | CCN1CCN(C(=O)C2=CC(c3ccc(OC)cc3)=NS(=O)(=O)N2C)CC1 |  |  |  | EC50 [3]: > 53 µM (inactive); IC50 [4]: > 47.1 µM (inactive)

— ChEMBL document CHEMBL1201862, “PubChem BioAssay data set” (2004)
